The test system of test [1] is mouse model of rheumatoid arthritis. To be noted: in vivo; cited from earlier work.
In test [2] the test system is model of systemic lupus erythematosis. To be noted: in vivo; cited from earlier work.
Test [3] concerns the target T1, p110δ (Homo sapiens, UniProt O00329).
T1 sequence (O00329 1-1044): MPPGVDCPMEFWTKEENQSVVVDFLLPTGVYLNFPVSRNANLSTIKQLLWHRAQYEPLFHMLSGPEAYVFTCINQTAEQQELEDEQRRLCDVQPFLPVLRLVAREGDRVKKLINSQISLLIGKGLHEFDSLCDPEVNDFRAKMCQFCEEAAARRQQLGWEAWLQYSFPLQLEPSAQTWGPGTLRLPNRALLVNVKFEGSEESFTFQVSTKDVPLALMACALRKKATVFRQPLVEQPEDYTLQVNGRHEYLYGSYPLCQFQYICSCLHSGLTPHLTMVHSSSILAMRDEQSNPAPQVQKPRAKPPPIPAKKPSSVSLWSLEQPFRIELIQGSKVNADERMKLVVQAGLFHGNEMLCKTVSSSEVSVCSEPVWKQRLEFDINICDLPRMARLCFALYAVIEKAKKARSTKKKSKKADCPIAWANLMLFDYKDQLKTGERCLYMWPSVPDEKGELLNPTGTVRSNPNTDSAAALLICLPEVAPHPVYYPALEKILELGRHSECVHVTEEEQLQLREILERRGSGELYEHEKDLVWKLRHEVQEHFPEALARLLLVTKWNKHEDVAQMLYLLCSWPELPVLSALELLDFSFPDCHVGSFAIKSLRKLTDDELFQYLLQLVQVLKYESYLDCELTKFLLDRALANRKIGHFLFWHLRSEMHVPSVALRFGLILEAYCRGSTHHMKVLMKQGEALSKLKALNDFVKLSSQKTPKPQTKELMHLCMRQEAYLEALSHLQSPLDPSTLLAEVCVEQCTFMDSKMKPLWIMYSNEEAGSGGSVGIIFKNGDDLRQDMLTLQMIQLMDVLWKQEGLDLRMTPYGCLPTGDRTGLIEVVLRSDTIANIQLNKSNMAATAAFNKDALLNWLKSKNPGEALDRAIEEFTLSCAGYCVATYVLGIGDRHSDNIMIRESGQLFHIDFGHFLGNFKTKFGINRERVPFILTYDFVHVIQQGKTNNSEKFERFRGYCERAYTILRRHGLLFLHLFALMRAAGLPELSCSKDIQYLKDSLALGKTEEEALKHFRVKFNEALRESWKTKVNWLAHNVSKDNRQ
To be noted: cited from earlier work.

In test [4] the test system is protein kinases. The following applies: cited from earlier work.
Test [5] has as its system murine model of asthma. The following applies: ovalbumin-induced airway inflammation; cited from earlier work.
Test [6] deals with T2, PI3Kδ (Homo sapiens, UniProt O00329).
T2 construct: Full length p110 subunits of PI3k α, β and δ, N-terminally labeled with polyHis tag; polyHis (N); made in house; host or cells: Sf9 insect cells (baculovirus)
T2 sequence (P27986 whole entry partner, one chain of several): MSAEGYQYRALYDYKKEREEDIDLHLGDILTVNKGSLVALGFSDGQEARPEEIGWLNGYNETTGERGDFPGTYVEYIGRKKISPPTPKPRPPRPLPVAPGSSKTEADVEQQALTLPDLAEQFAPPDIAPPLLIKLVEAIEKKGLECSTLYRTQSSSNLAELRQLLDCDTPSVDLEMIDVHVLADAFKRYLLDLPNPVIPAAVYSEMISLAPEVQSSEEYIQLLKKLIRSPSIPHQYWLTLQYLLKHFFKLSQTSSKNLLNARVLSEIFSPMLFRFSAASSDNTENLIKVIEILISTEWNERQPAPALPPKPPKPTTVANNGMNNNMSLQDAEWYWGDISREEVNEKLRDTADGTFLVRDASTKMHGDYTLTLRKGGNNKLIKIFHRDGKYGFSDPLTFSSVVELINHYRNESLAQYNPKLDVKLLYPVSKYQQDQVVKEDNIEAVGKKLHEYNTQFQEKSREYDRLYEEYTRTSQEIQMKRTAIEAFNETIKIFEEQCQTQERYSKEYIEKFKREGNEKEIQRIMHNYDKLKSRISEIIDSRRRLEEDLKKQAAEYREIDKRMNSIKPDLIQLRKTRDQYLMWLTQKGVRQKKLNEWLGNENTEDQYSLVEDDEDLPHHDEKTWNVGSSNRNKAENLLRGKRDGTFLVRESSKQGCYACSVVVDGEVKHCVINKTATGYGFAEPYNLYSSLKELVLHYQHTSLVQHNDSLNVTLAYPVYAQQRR
The test is described as follows: PI3Kδ Alphascreen assay. The test is classed as biochemical. An outline of the steps:
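Full-length N-His p110δ/p85 coexpressed in Sf9 cells; reaction in 50 mM Tris pH 7, 14 mM MgCl2, 2 mM cholate, 100 mM NaCl, 2 mM DTT with PI(4,5)P2 and ATP (2× stocks 10 μM and 8 μM), 20 min RT. PIP3 detected by AlphaScreen competition with biotin-IP4/PIP3-binding protein; 22-point 1:2 dilutions.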

What is called Ki is the dissociation constant of the complex between target and ligand, obtained from inhibition or displacement. Higher therefore signals a looser hold on the target.

Take `O=C1NC(=O)/C(=C\c2ccc3nccnc3c2)S1` [AS 605240]: the “efficacy in a mouse model of rheumatoid arthritis” value in test [1] was “efficacious”. In addition, the “onset of disease in a model of systemic lupus erythematosis” value in test [2] is on record as “delay onset of disease”. Take `Cc1ccccc1-n1c(Cn2cnc3c(N)ncnc32)nc2cccc(C)c2c1=O` [IC87114]: the “inhibits p110δ” value in test [3] was “high nanomolar range (triple digit)”. Further, the “activity against any protein kinases tested” value in test [4] is “no activity”. In addition, the “inflammation and disease in a murine model of asthma” value in test [5] was “significantly ameliorate inflammation and disease”. In turn, `CC(Nc1ccncn1)c1nc2ccc(F)cc2cc1-c1ccccn1` (centres unmarked) [N-(1-(6-Fluoro-3-(pyridin-2-yl)quinolin-2-yl)ethyl)pyrimidin-4-amine] returned an inhibitory constant (Ki) in test [6] of 11.6 µM. In test [6], `CC(Nc1ncnc2[nH]cnc12)c1nc2ccc(F)cc2c(S(C)(=O)=O)c1-c1ccccc1` (centres unmarked) [N-(1-(6-Fluoro-4-(methylsulfonyl)-3-phenylquinolin-2-yl)ethyl)-9H-purin-6-amine] registered a Ki of 0.00234 µM.

On to `C[C@@H](Nc1ccnc(N)n1)c1nc2ccc(F)cc2cc1-c1ccccn1` [N~4~-((1R)-1-(6-fluoro-3-(2-pyridinyl)-2-quinolinyl)ethyl)-2,4-pyrimidinediamine], for which, in test [6], the Ki was 5.52 µM.
